Data on 5 compounds can be found in publication PMC7570662, “In Vivo Pharmacokinetic Analysis Utilizing Non-Targeted and Targeted Mass Spectrometry and In Vitro Assay against Transient Receptor Potential Channels of Maobushisaishinto and Its Constituent Asiasari Radix” (Molecules, 2020).

This data set in a line: Qualitative non-targeted LC-HRMS analysis of AR compounds in rat plasma after oral AR or MBST. It counts as in vivo. The settings on record: for AR-Treated Rat Plasma (detection of compound): rat plasma 1 h after oral 2 g/kg AR, n = 1, LC-HRMS; for MBST-Treated Rat Plasma (detection of compound): rat plasma 1 h after oral 2 g/kg MBST, n = 3, LC-HRMS. The protocol:
Extract powders of AR or MBST were suspended in distilled water and orally administered to rats having fasted for approximately 16 h. The dose of AR was set at 2 g/kg, and the MBST doses were set at 1 and 2 g/kg. 1 g/kg MBST contained 578 µg/kg, 147 µg/kg, 226 µg/kg, 426 µg/kg asarinin, sesamin, methyl kakuol, and amide A, respectively. The doses were chosen based on a previous pharmacological study of MBST using rats.
According to previous pharmacokinetic studies of herbal medicines, many of the components were quickly absorbed into the bloodstream, thereby providing the rationale for a sampling time at 1 h. Blood was centrifuged at 1200× g at 4 °C for 30 min to obtain plasma; then, the sample was stored at −80 °C until LC-HRMS analysis. […]
The plasma samples were collected at 1 h after MBST administration in case of both the qualitative (non-targeted) analysis and the quantitative (targeted) analysis.
The plasma samples of AR- or MBST-treated rats collected at 1 h post-administration were pretreated by deproteinization using methanol before the LC-HRMS analysis as follows: 100 µL plasma sample was mixed with 500 µL methanol, and the resultant solution was vortexed for 2 min. The mixture was centrifuged at 7000× g at 4 °C for 5 min. The supernatant was dried using a centrifugal evaporator, and the dried residue was dissolved in 100 μL of the initial LC mobile phase which is composed of 0.1 vol% formic acid in water/acetonitrile (99.9/0.1, v/v) and recentrifuged at 7000× g at 4 °C for 5 min. Finally, a 5 μL aliquot of the supernatant was injected into the LC-HRMS system comprised of an Acquity Ultra-Performance Liquid Chromatography System (Waters, Milford, MA, USA) and a Xevo G2-XS quadrupole time-of-flight MS (Waters) and was chromatographically separated using an ACQUITY UPLC HSS T3 column (2.1 × 150 mm I.D., 1.8-μm particle size; Waters) with an ACQUITY UPLC HSS T3 VanGuard Pre-column (2.1 mm × 5 mm I.D., 1.8-μm particle size; Waters) at 40 °C. The mobile phase consisted of solution A (0.1% formic acid, v/v) and solution B (acetonitrile) with a gradient of solution B (0.1%, 0 min; 99%, 24 min; v/v) at a flow rate of 0.4 mL/min. The analysis of the mass spectrometer fit with an electrospray ionization probe with sensitivity mode was performed for both the positive and negative ion mode. The resolution of the mass spectrometer was set at >20,000. For MS^E experiments, two acquisition functions with different collision energies were created: a low-energy function with a collision energy of 6 eV and a high-energy function with collision energy ranging from 15 to 40 eV.

On to `CC=CC=CCCC=CC=CC(=O)NCC(C)C` (single isomer, unassigned) [N-Isobutyl-2,4,8,10-dodecatetraenamide isomer], for which the “AR-Treated Rat Plasma (detection of compound)” value (“AR-Treated Rat Plasma” for short) is “+ (The number of plus signs represents the sample number in which the compound was detected among AR-treated rat plasma (n = 1) and MBST-treated rat plasma (n = 3))”; the “MBST-Treated Rat Plasma (detection of compound)” value was “+ + + (The number of plus signs represents the sample number in which the compound was detected among AR-treated rat plasma (n = 1) and MBST-treated rat plasma (n = 3))”.

For the compound “(2E,4E,9E)-8,11-Dihydroxy-N-isobutyl-2,4,9-dodecatrienamide, (2E,4E,8Z)-10,11-Dihydroxy-N-isobutyl-2,4,8-dodecatrienamide”, the “AR-Treated Rat Plasma” value was “+ (The number of plus signs represents the sample number in which the compound was detected among AR-treated rat plasma (n = 1) and MBST-treated rat plasma (n = 3))”; the “MBST-Treated Rat Plasma (detection of compound)” value was “+ + + (The number of plus signs represents the sample number in which the compound was detected among AR-treated rat plasma (n = 1) and MBST-treated rat plasma (n = 3))”.

In the case of `C=CCc1ccc(OC)cc1` [Estragole], the “AR-Treated Rat Plasma” value is “+ (The number of plus signs represents the sample number in which the compound was detected among AR-treated rat plasma (n = 1) and MBST-treated rat plasma (n = 3))”.

With `C/C=C/C=C\CC/C=C/C(=O)NCC(C)C` [Spilanthol], the “Detection in plasma of rats treated with AR or MBST (non-targeted analysis)” value (rat, in vivo, po) is given as “not detected”.

As to `Oc1ccc(C2OCC3C(c4ccc5c(c4)OCO5)OCC23)cc1O` (stereo not drawn) [(7α,7′β,8α,8′α)-3,4-Methylenedioxy-3′,4′-dihydroxy-7,9′:7′,9-diepoxylignane], the “AR-Treated Rat Plasma” value was “+ (The number of plus signs represents the sample number in which the compound was detected among AR-treated rat plasma (n = 1) and MBST-treated rat plasma (n = 3))”.
